EP0414533A1, “Use of iodopropargyl esters of alpha-amino acid derivatives as antimicrobial agents” (ROHM AND HAAS COMPANY, priority 1989, dated 1991)
Values after ≈ are worked out from the molar mass of the structure shown. Values joined by “and” are separate entries in the source; they are usually repeats but may differ in a detail not shown here. Identical values can stand only once. Counter-ions that a name gives are not always drawn. Like-named read-outs stand apart in the source and are kept apart here.

How the values were obtained:
[1] = system: Escherichia coli (ECOL); experiment: Minimum inhibitory concentration (MIC), broth two-fold serial dilution test; conditions: for MIC: Escherichia coli, read-out: MIC (G-) ECOL, M9G (minimal salts media with glucose); for MIC (G-) ECOL: M9G (minimal salts media with glucose)
[2] = system: THREE FUNGI; experiment: MIC test against three fungi in Mycophile Broth, pH 5.0, read after 8 days (Table VII); type: cell-based; conditions: for MIC: 192 h
[3] = system: Aspergillus niger (ANIG); experiment: Minimum inhibitory concentration (MIC), broth two-fold serial dilution test; type: cell-based; conditions: for MIC: Aspergillus niger
[4] = system: Aureobasidium pullulans (APUL); experiment: as above; type: cell-based; conditions: for MIC: Aureobasidium pullulans
[5] = system: Septoria nodorum (SEP); experiment: In-vitro plant fungicide test; type: cell-based; conditions: 25 ppm, Table IVa; for inhibition of growth at 25 ppm: Parastagonospora nodorum, read-out: % Control at 25 ppm SEP
[6] = system: Staphylococcus aureus (SAUR); experiment: Minimum inhibitory concentration (MIC), broth two-fold serial dilution test; conditions: Table IIIa; for MIC (G+) SAUR: M9G (minimal salts media with glucose); for MIC: Staphylococcus aureus, read-out: MIC (G+) SAUR, M9G (minimal salts media with glucose)
[7] = system: Xanthomonas campestris (XAN); experiment: In-vitro plant fungicide test; type: cell-based; conditions: 25 ppm, Table IVa; for inhibition of growth at 25 ppm: Xanthomonas campestris, read-out: % Control at 25 ppm XAN
[8] = system: Pseudomonas fluorescens (PSFL); experiment: Minimum inhibitory concentration (MIC), broth two-fold serial dilution test; conditions: Table IIIa; for MIC (G-) PSFL: M9G (minimal salts media with glucose)
[9] = system: Piricularia oryzae (PIR); experiment: microbe, parasite or virus in culture; type: cell-based; conditions: for inhibition of growth at 25 ppm: read-out: % Control at 25 ppm PIR
[10] = system: Pseudomonas aerugenosa (PSAE); experiment: Minimum inhibitory concentration (MIC), broth two-fold serial dilution test; conditions: Table IIIa; for MIC (G-) PSAE: M9G (minimal salts media with glucose); for MIC: Pseudomonas, read-out: MIC (G-) PSAE, M9G (minimal salts media with glucose)
[11] = system: Cochliobolus sativus (HEL); experiment: In-vitro plant fungicide test; type: cell-based; conditions: 25 ppm, Table IVa, *=Phytotoxic; for inhibition of growth at 25 ppm: Bipolaris sorokiniana, read-out: % Control at 25 ppm HEL
[12] = system: Phytophthora capsici (PHY); experiment: In-vitro plant fungicide test; type: cell-based; conditions: 25 ppm, Table IVa; for inhibition of growth at 25 ppm: Phytophthora capsici, read-out: % Control at 25 ppm PHY
[13] = system: Pythium ultimum (PYU); experiment: In-vitro plant fungicide test; type: cell-based; conditions: 25 ppm, Table IVa; for inhibition of growth at 25 ppm: Globisporangium ultimum, read-out: % Control at 25 ppm PYU
[14] = system: Rhizoctonia solani (RHI); experiment: In-vitro plant fungicide test; type: cell-based; conditions: 25 ppm, Table IVa; for inhibition of growth at 25 ppm: Rhizoctonia solani, read-out: % Control at 25 ppm RHI
[15] = system: Botrytis cinerea (BOC); experiment: In-vitro plant fungicide test; type: cell-based; conditions: 25 ppm, Table IVa, *=Phytotoxic; for inhibition of growth at 25 ppm: Botrytis cinerea, read-out: % Control at 25 ppm BOC
[16] = system: Fusarium roseum (FUS); experiment: In-vitro plant fungicide test; type: cell-based; conditions: Table IVa, *=Phytotoxic; for inhibition of growth at 25 ppm: Fusarium sambucinum, read-out: % Control at 25 ppm FUS, 25 ppm
[17] = Table IIIc, iodopropargyl esters of peptides
[18] = Aspergillus niger, serial dilutions from 50 ppm, read after 8 days of incubation, read-out: MIC ANIG
[19] = Aureobasidium pullulans, serial dilutions from 50 ppm, read after 8 days of incubation, read-out: MIC APUL
[20] = Gloeophyllum trabeum, serial dilutions from 50 ppm, read after 8 days of incubation, read-out: MIC GTRA
[21] = M9G (minimal salts media with glucose), Table IIIc, iodopropargyl esters of peptides
[22] = M9G (minimal salts media with glucose), Table IIIc, iodopropargyl esters of peptides, read-out: MIC (F) APUL
[23] = Aspergillus niger, serial dilutions from 50 ppm, read after 8 days of incubation
[24] = Aureobasidium pullulans, serial dilutions from 50 ppm, read after 8 days of incubation
[25] = M9G (minimal salts media with glucose), Table IIIa
[26] = Aspergillus niger, pH 5, read-out: MIC ANIG, Aspergillus niger, serial dilutions from 50 ppm, read after 8 days of incubation
[27] = Aureobasidium pullulans, pH 5, read-out: MIC APUL, Aureobasidium pullulans, serial dilutions from 50 ppm, read after 8 days of incubation
[28] = Gloeophyllum trabeum, pH 5, read-out: MIC GTRA, Gloeophyllum trabeum, serial dilutions from 50 ppm, read after 8 days of incubation
[29] = M9G (minimal salts media with glucose), Table IIIa, trifluoroacetate

Compound: C[C@H](NC(=O)[C@@H](C)NC(=O)OC(C)(C)C)C(=O)OCC#CI [Compound 26, N-t-butoxycarbonyl-D-alanyl-L-alanine iodopropargyl ester]
- MIC [1, 17]: 63 mg/L
- MIC (G-) ECOL [1, 17]: 32 PPM
- MIC [2, 18]: 25 mg/L (≈ 58.9 µM)
- MIC [2, 19]: 50 mg/L (≈ 118 µM)
- MIC [2, 20]: 6.2 mg/L (≈ 14.6 µM)
- MIC (F) ANIG [3, 21]: <4 PPM
- MIC [4, 22]: < 4 mg/L
- MIC (F) APUL [4, 21]: 8 PPM

Compound: C[C@H](N)C(=O)OCC#CI [Compound 22, L-alanine iodopropargyl ester]
- MIC (G-) ECOL ([1]; Table IIIa): 100 PPM
- MIC ANIG [2, 23]: 12.5 ppm
- MIC APUL [2, 24]: 50 ppm
- % Control at 25 ppm SEP [5]: 100%
- MIC (G+) SAUR [6]: 100 PPM
- % Control at 25 ppm XAN [7]: 0%
- MIC (F) ANIG [3, 25]: <0.8 PPM
- MIC (G-) PSFL [8]: 100 PPM
- % Control at 25 ppm PIR [9]: 100%
- MIC (F) APUL [4, 25]: <0.8 PPM
- MIC (G-) PSAE [10]: 100 PPM

Compound: C[C@@H](NC(=O)OC(C)(C)C)C(=O)N[C@H](C)C(=O)OCC#CI [Compound 25, N-t-butoxycarbonyl-D-alanyl-D-alanine iodopropargyl ester]
- MIC [1, 17]: 63 mg/L
- MIC [2, 18]: 50 mg/L (≈ 118 µM)
- MIC [2, 19]: > 50 mg/L
- MIC [2, 20]: 6.2 mg/L (≈ 14.6 µM)
- MIC ([3]; M9G (minimal salts media with glucose), Table IIIc, iodopropargyl esters of peptides, read-out: MIC (F) ANIG): < 4 mg/L
- MIC [4, 22]: < 4 mg/L

Compound: C[C@H](N)C(=O)OCC#CI [Compound 8, L-alanine iodopropargyl ester trifluoroacetate]
- MIC ([1]; Table IIIa): 64 mg/L
- MIC (G-) ECOL ([1]; Table IIIa, trifluoroacetate): >100 PPM
- inhibition of growth at 25 ppm [11]: 100%
- MIC [2, 26]: 12.5 mg/L
- MIC [2, 27]: 25 mg/L
- MIC [2, 28]: 12.5 mg/L
- inhibition of growth at 25 ppm [5]: 100%
- inhibition of growth at 25 ppm [12]: 100%
- inhibition of growth at 25 ppm [7]: 0%
- inhibition of growth at 25 ppm [13]: 100%
- inhibition of growth at 25 ppm [14]: 100%
- inhibition of growth at 25 ppm [15]: 100%
- MIC (F) ANIG [3, 29]: <4 PPM and 3 PPM
- inhibition of growth at 25 ppm [9]: 100%
- inhibition of growth at 25 ppm [16]: 100%
- MIC (F) APUL [4, 29]: <4 PPM and 2 PPM
- MIC (G-) PSAE ([10]; trifluoroacetate): >100 PPM
- MIC [10]: 125 mg/L

Compound: C#CCSC[C@H](NC(=O)OC(C)(C)C)C(=O)OCC#CI [Compound 6, N-t-butoxycarbonyl-S-propargyl-L-cysteine iodopropargyl ester]
- % Control at 25 ppm HEL [11]: 100%
- MIC ANIG [2, 23]: 12.5 ppm
- MIC APUL [2, 24]: 25 ppm
- MIC GTRA ([2]; Gloeophyllum trabeum, serial dilutions from 50 ppm, read after 8 days of incubation): 3.2 ppm
- % Control at 25 ppm SEP [5]: 100%
- % Control at 25 ppm PHY [12]: 100%
- MIC (G+) SAUR [6]: >100 PPM and 64 PPM
- % Control at 25 ppm XAN [7]: 0%
- % Control at 25 ppm PYU [13]: 100%
- % Control at 25 ppm RHI [14]: 100%
- % Control at 25 ppm BOC [15]: 0%
- % Control at 25 ppm PIR [9]: 100%
- % Control at 25 ppm FUS ([16]; 25 ppm): 100%

Compound: C[C@@H](NC(=O)OC(C)(C)C)C(=O)OCC#CI [Compound 23, N-t-butoxycarbonyl-D-alanine iodopropargyl ester]
- inhibition of growth at 25 ppm [11]: 100%
- MIC [2, 18]: 6.2 mg/L (≈ 17.6 µM)
- MIC [2, 19]: 25 mg/L (≈ 70.8 µM)
- MIC [2, 20]: 1.6 mg/L (≈ 4.53 µM)
- inhibition of growth at 25 ppm [5]: 100%
- MIC (G+) SAUR [6]: 32 PPM
- MIC [6]: 63 mg/L
- inhibition of growth at 25 ppm [7]: 0%
- inhibition of growth at 25 ppm [13]: 100%
- inhibition of growth at 25 ppm [14]: 100%
- inhibition of growth at 25 ppm [15]: 100%
- MIC ([3]; M9G (minimal salts media with glucose), Table IIIa, read-out: MIC (F) ANIG): < 4 mg/L
- inhibition of growth at 25 ppm [9]: 100%
- inhibition of growth at 25 ppm [16]: 100%
- MIC ([4]; M9G (minimal salts media with glucose), Table IIIa, read-out: MIC (F) APUL): < 4 mg/L

Compound: C[C@@H](N)C(=O)OCC#CI [Compound 24, D-alanine iodopropargyl ester trifluoroacetate]
- MIC ([1]; Table IIIa): 32 mg/L
- MIC (G-) ECOL ([1]; Table IIIa, trifluoroacetate): 63 PPM
- inhibition of growth at 25 ppm [11]: 100%
- MIC [2, 26]: 12.5 mg/L
- MIC [2, 27]: 25 mg/L
- MIC [2, 28]: 12.5 mg/L
- inhibition of growth at 25 ppm [5]: 100%
- MIC (G+) SAUR ([6]; trifluoroacetate): 63 PPM
- MIC [6]: 125 mg/L
- inhibition of growth at 25 ppm [7]: 0%
- inhibition of growth at 25 ppm [13]: 100%
- inhibition of growth at 25 ppm [14]: 100%
- inhibition of growth at 25 ppm [15]: 0%
- MIC ([3]; read-out: MIC (F) ANIG, M9G (minimal salts media with glucose), Table IIIa): < 4 mg/L
- MIC (G-) PSFL ([8]; trifluoroacetate): 32 PPM
- MIC ([8]; Pseudomonas fluorescens, read-out: MIC (G-) PSFL, M9G (minimal salts media with glucose)): 63 mg/L
- inhibition of growth at 25 ppm [9]: 100%
- inhibition of growth at 25 ppm [16]: 75%
- MIC ([4]; read-out: MIC (F) APUL, M9G (minimal salts media with glucose), Table IIIa): < 4 mg/L

Compound: NCC(=O)OCC#CI [Compound 7, glycine iodopropargyl ester trifluoroacetate]
- MIC ([1]; Table IIIa): 100 mg/L
- MIC (G-) ECOL ([1]; Table IIIa, trifluoroacetate): 64 PPM
- inhibition of growth at 25 ppm [11]: 100%
- MIC [2, 26]: 25 mg/L
- MIC [2, 27]: 50 mg/L
- MIC [2, 28]: 12.5 mg/L
- inhibition of growth at 25 ppm [5]: 100%
- inhibition of growth at 25 ppm [12]: 100%
- inhibition of growth at 25 ppm [7]: 0%
- inhibition of growth at 25 ppm [13]: 100%
- inhibition of growth at 25 ppm [14]: 100%
- inhibition of growth at 25 ppm [15]: 100%
- inhibition of growth at 25 ppm [9]: 100%
- inhibition of growth at 25 ppm [16]: 100%
- MIC (G-) PSAE ([10]; trifluoroacetate): 125 PPM
- MIC [10]: 100 mg/L
